# Assay results from patent US20240025907A1, “QUINAZOLINE PAN-KRas INHIBITORS” (Mirati Therapeutics, Inc., priority 2022, published 2024).
# Key:
# Format in all cases: cell-based
# [1] = system: KRas-mediated Phosphorylation of ERK in HCT116 cells; assay: Cisbio HTRF pERK assay, HCT116 cells; conditions: single point at 100 nM; for inhibition at 0.1 µM: Homo sapiens, HCT-116, HCT116 cells; for Inhibition (HTRF % at 100 nM) of KRas-mediated Phosphorylation of ERK, HCT116: HCT116 cells, 0.1 µM
# [2] = system: KRas-mediated Phosphorylation of ERK in A549 cells; assay: Cisbio HTRF pERK assay, A549 cells; conditions: Homo sapiens, A549, A549 cells, single point at 100 nM
# [3] = system: KRas-mediated Phosphorylation of ERK in H460 cells; assay: Cisbio HTRF pERK assay, H460 cells; conditions: single point at 100 nM; for inhibition at 0.1 µM: Homo sapiens, NCI-H460, H460 cells; for Inhibition (HTRF % at 100 nM) of KRas-mediated Phosphorylation of ERK, H460: H460 cells, 0.1 µM
# [4] = system: KRas-mediated Phosphorylation of ERK in H358 cells; assay: Cisbio HTRF pERK assay, H358 cells; conditions: Homo sapiens, NCI-H358, H358 cells, single point at 100 nM
Structure (SMILES),inhibition at 0.1 µM [1],inhibition at 0.1 µM [2],inhibition at 0.1 µM [3],inhibition at 0.1 µM [4],"Inhibition (HTRF % at 100 nM) of KRas-mediated Phosphorylation of ERK, HCT116 [1]","Inhibition (HTRF % at 100 nM) of KRas-mediated Phosphorylation of ERK, H460 [3]"
"CCc1c(F)ccc2cc(O)cc(-c3c(F)cc4c(N5CCCC6(CC(=O)NC6=O)C5)nc(OC[C@@]56CCCN5C[C@H](F)C6)nc4c3F)c12 (stereo partly drawn) [Example 62, 7-(7-(8-ethyl-7-fluoro-3-hydroxynaphthalen-1-yl)-6,8-difluoro-2-(((2R,7aS)-2-fluorotetrahydro-1H-pyrrolizin-7a(5H)-yl)methoxy)quinazolin-4-yl)-2,7-azaspiro[4.5]decane-1,3-dione]",92%,72%,98%,96%,–,–
"CCc1c(F)ccc2cc(O)cc(-c3c(F)cc4c(N5CCCn6nc(C(=O)N7CCOCC7)c(Cl)c6C5)nc(OC[C@@]56CCCN5C[C@H](F)C6)nc4c3F)c12 [Example 79, (3-chloro-5-(7-(8-ethyl-7-fluoro-3-hydroxynaphthalen-1-yl)-6,8-difluoro-2-(((2R,7aS)-2-fluorohexahydro-1H-pyrrolizin-7a-yl)methoxy)quinazolin-4-yl)-5,6,7,8-tetrahydro-4H-pyrazolo[1,5-a][1,4]diazepin-2-yl)(morpholino)methanone]",64%,60%,85%,95%,–,–
"CCc1c(F)ccc2cc(O)cc(-c3c(F)cc4c(N5CCCn6nc(C(=O)N(C)C)c(C)c6C5)nc(OC[C@@]56CCCN5C[C@H](F)C6)nc4c3F)c12 [Example 80, 5-(7-(8-ethyl-7-fluoro-3-hydroxynaphthalen-1-yl)-6,8-difluoro-2-(((2R,7aS)-2-fluorohexahydro-1H-pyrrolizin-7a-yl)methoxy)quinazolin-4-yl)-N,N,3-trimethyl-5,6,7,8-tetrahydro-4H-pyrazolo[1,5-a][1,4]diazepine-2-carboxamide]",71%,83%,89%,95%,–,–
"CCc1c(F)ccc2cc(O)cc(-c3c(F)cc4c(N5C[C@@H]6C[C@H](C5)[C@H](O)C6)nc(OC[C@@]56CCCN5C[C@H](F)C6)nc4c3F)c12 (atropisomer, axis not shown; (aS)) [Example 67, (1R,5R,6R)-3-((R)-7-(8-ethyl-7-fluoro-3-hydroxynaphthalen-1-yl)-6,8-difluoro-2-(((2R,7aS)-2-fluorohexahydro-1H-pyrrolizin-7a-yl)methoxy)quinazolin-4-yl)-3-azabicyclo[3.2.1]octan-6-ol]",–,81%,–,94%,73%,95%
"CCc1c(F)ccc2cc(O)cc(C3Cc4nc(OC[C@@]56CCCN5C[C@H](F)C6)nc(N5CCC[C@@](C)(O)C5)c4CO3)c12 (stereo partly drawn) [Example 85, (3R)-1-(7-(8-ethyl-7-fluoro-3-hydroxynaphthalen-1-yl)-2-(((2R,7aS)-2-fluorotetrahydro-1H-pyrrolizin-7a(5H)-yl)methoxy)-7,8-dihydro-5H-pyrano[4,3-d]pyrimidin-4-yl)-3-methylpiperidin-3-ol]",-12%,21%,16%,-7%,–,–
"O=S1(=O)NCC2(CCCN(c3nc(OC[C@@]45CCCN4C[C@H](F)C5)nc4c(F)c(-c5cc(O)cc6ccc(F)c(Cl)c56)ccc34)C2)N1 (stereo partly drawn) [Example 72, 7-(7-(8-chloro-7-fluoro-3-hydroxynaphthalen-1-yl)-8-fluoro-2-(((2R,7aS)-2-fluorohexahydro-1H-pyrrolizin-7a-yl)methoxy)quinazolin-4-yl)-2-thia-1,3,7-triazaspiro[4.5]decane 2,2-dioxide]",69%,76%,87%,98%,–,–
"CCc1c(F)ccc2cc(O)cc(C3Cc4nc(OC[C@@]56CCCN5C[C@H](F)C6)nc(N5C[C@@H]6C[C@H](C5)[C@H](O)C6)c4CO3)c12 (stereo partly drawn) [Example 86, (1R,5R,6R)-3-(7-(8-ethyl-7-fluoro-3-hydroxynaphthalen-1-yl)-2-(((2R,7aS)-2-fluorotetrahydro-1H-pyrrolizin-7a(5H)-yl)methoxy)-7,8-dihydro-5H-pyrano[4,3-d]pyrimidin-4-yl)-3-azabicyclo[3.2.1]octan-6-ol]",-12%,0%,-1%,-14%,–,–
"CCc1c(F)ccc2cc(O)cc(-c3c(F)cc4c(N5CCOCC(C)(O)C5)nc(OCC5(CN(C)C)CC5)nc4c3F)c12 (stereo not drawn) [Example 56, 4-(2-((1-((dimethylamino)methyl)cyclopropyl)methoxy)-7-(8-ethyl-7-fluoro-3-hydroxynaphthalen-1-yl)-6,8-difluoroquinazolin-4-yl)-6-methyl-1,4-oxazepan-6-ol]",51%,47%,86%,87%,–,–
"CCc1c(F)ccc2cc(O)cc(-c3c(F)cc4c(N5C[C@@H]6C[C@H](C5)[C@H](O)C6)nc(OC[C@@]56CCCN5C[C@H](F)C6)nc4c3F)c12 (atropisomer, axis not shown; (aS)) [Example 68, (1R,5R,6R)-3-((S)-7-(8-ethyl-7-fluoro-3-hydroxynaphthalen-1-yl)-6,8-difluoro-2-(((2R,7aS)-2-fluorohexahydro-1H-pyrrolizin-7a-yl)methoxy)quinazolin-4-yl)-3-azabicyclo[3.2.1]octan-6-ol]",–,–,–,–,8%,14%
"CCc1c(F)ccc2cc(O)cc(-c3c(F)cc4c(N5CCOC[C@@](C)(O)C5)nc(OC[C@@]56CCCN5C[C@H](F)C6)nc4c3F)c12 (atropisomer, axis not shown; (aS)) [Example 66, (S)-4-((R)-7-(8-ethyl-7-fluoro-3-hydroxynaphthalen-1-yl)-6,8-difluoro-2-(((2R,7aS)-2-fluorohexahydro-1H-pyrrolizin-7a-yl)methoxy)quinazolin-4-yl)-6-methyl-1,4-oxazepan-6-ol]",–,–,–,–,97%,97%
"CCc1c(F)ccc2cc(O)cc(-c3c(F)cc4c(N5CCCC6(CNC(=O)N6)C5)nc(OCC5(CN(C)C)CC5)nc4c3F)c12 (stereo not drawn) [Example 49, 7-(2-((1-((dimethylamino)methyl)cyclopropyl)methoxy)-7-(8-ethyl-7-fluoro-3-hydroxynaphthalen-1-yl)-6,8-difluoroquinazolin-4-yl)-1,3,7-triazaspiro[4.5]decan-2-one]",13%,–,23%,–,–,–
"CCc1c(F)ccc2cc(O)cc(C3Cc4nc(OC[C@@]56CCCN5C[C@H](F)C6)nc(N5CCCC6(C5)NC(=O)NC6=O)c4CO3)c12 (stereo partly drawn) [Example 87, 7-(7-(8-ethyl-7-fluoro-3-hydroxynaphthalen-1-yl)-2-(((2R,7aS)-2-fluorotetrahydro-1H-pyrrolizin-7a(5H)-yl)methoxy)-7,8-dihydro-5H-pyrano[4,3-d]pyrimidin-4-yl)-1,3,7-triazaspiro[4.5]decane-2,4-dione]",-5%,16%,-8%,30%,–,–
"CCc1c(F)ccc2cc(O)cc(-c3c(F)cc4c(N5CCCn6nc(C(=O)NC(C)C)cc6C5)nc(OC[C@@]56CCCN5C[C@H](F)C6)nc4c3F)c12 [Example 59, 5-(7-(8-ethyl-7-fluoro-3-hydroxynaphthalen-1-yl)-6,8-difluoro-2-(((2R,7aS)-2-fluorotetrahydro-1H-pyrrolizin-7a(51)-yl)methoxy)quinazolin-4-yl)-N-isopropyl-5,6,7,8-tetrahydro-4H-pyrazolo[1,5-a][1,4]diazepine-2-carboxamide]",23%,–,36%,–,–,–
"CCc1c(F)ccc2cc(O)cc(-c3c(F)cc4c(N5CCCC6(CNS(=O)(=O)N6)C5)nc(OCC5(CN(C)C)CC5)nc4c3F)c12 (stereo not drawn) [Example 50, 7-(2-((1-((dimethylamino)methyl)cyclopropyl)methoxy)-7-(8-ethyl-7-fluoro-3-hydroxynaphthalen-1-yl)-6,8-difluoroquinazolin-4-yl)-2-thia-1,3,7-triazaspiro[4.5]decane 2,2-dioxide]",-3%,-17%,38%,3%,–,–
"CCc1c(F)ccc2cc(O)cc(-c3ccc4c(N5CCOCC(C)(O)C5)nc(OCC5(CN(C)C)CC5)nc4c3F)c12 (stereo not drawn) [Example 42, 4-(2-((1-((dimethylamino)methyl)cyclopropyl)methoxy)-7-(8-ethyl-7-fluoro-3-hydroxynaphthalen-1-yl)-8-fluoroquinazolin-4-yl)-6-methyl-1,4-oxazepan-6-ol]",30%,39%,59%,71%,–,–
"CCc1c(F)ccc2cc(O)cc(-c3c(F)cc4c(N5CCOC[C@@](C)(O)C5)nc(OC[C@@]56CCCN5C[C@H](F)C6)nc4c3F)c12 (atropisomer, axis not shown; (aS)) [Example 65, (S)-4-((S)-7-(8-ethyl-7-fluoro-3-hydroxynaphthalen-1-yl)-6,8-difluoro-2-(((2R,7aS)-2-fluorohexahydro-1H-pyrrolizin-7a-yl)methoxy)quinazolin-4-yl)-6-methyl-1,4-oxazepan-6-ol]",–,–,–,–,16%,1%
